{"source": "the supplement of paper PMC4862054", "conditions_in_all_cases": "incubation time: 72 h", "key": {"MDA-MB-436 [1]": {"test_system": "MDA-MB-436", "assay": "normalised response (% of control), CellTox Green; higher = less cell death (100 = DMSO, 0 = benzethonium chloride kill control)", "procedure,_shortened": "(§1)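 The table gives the normalised signal for a single concentration in each entry. Breast cancer cell lines were seeded (20 µl suspension) into 384-well plates holding compound at 5 concentrations in 10-fold steps over a compound-specific 10,000-fold range and incubated 72 h, then read for CellTox Green fluorescence (485/520 nm) and CellTiter-Glo luminescence. Normalisation on each plate used 0.1 % DMSO (100) and a positive kill control (0).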"}, "MCF-10A": {"test_system": "MCF-10A", "assay": "normalised response (% of control), CellTox Green; higher = less cell death (100 = DMSO, 0 = benzethonium chloride kill control)", "procedure,_shortened": "as §1"}, "MFM-223 [2]": {"test_system": "MFM-223", "assay": "normalised response (% of control), CellTox Green; higher = less cell death (100 = DMSO, 0 = benzethonium chloride kill control)", "procedure,_shortened": "as §1"}, "CAL-85-1 [3]": {"test_system": "CAL-85-1", "assay": "normalised response (% of control), CellTox Green; higher = less cell death (100 = DMSO, 0 = benzethonium chloride kill control)", "procedure,_shortened": "as §1"}, "CAL-148 [4]": {"test_system": "CAL-148", "assay": "normalised response (% of control), CellTox Green; higher = less cell death (100 = DMSO, 0 = benzethonium chloride kill control)", "procedure,_shortened": "as §1"}, "HCC1599 [5]": {"test_system": "HCC1599", "assay": "normalised response (% of control), CellTox Green; higher = less cell death (100 = DMSO, 0 = benzethonium chloride kill control)", "procedure,_shortened": "as §1"}, "CAL-51 [6]": {"test_system": "CAL-51", "assay": "normalised response (% of control), CellTox Green; higher = less cell death (100 = DMSO, 0 = benzethonium chloride kill control)", "procedure,_shortened": "as §1"}, "MDA-MB-453 [7]": {"test_system": "MDA-MB-453", "assay": "normalised response (% of control), CellTox Green; higher = less cell death (100 = DMSO, 0 = benzethonium chloride kill control)", "procedure,_shortened": "as §1"}, "HCC1143 [8]": {"test_system": "HCC1143", "assay": "normalised response (% of control), CellTox Green; higher = less cell death (100 = DMSO, 0 = benzethonium chloride kill control)", "procedure,_shortened": "as §1"}, "DU-4475 [9]": {"test_system": "DU-4475", "assay": "normalised response (% of control), CellTox Green; higher = less cell death (100 = DMSO, 0 = benzethonium chloride kill control)", "procedure,_shortened": "as §1"}, "MDA-MB-436 [10]": {"test_system": "MDA-MB-436", "assay": "normalised viability (% of control), CellTiter-Blue; higher = more viable cells (about 100 = DMSO control)", "procedure,_shortened": "(§2)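 Vehicle (100) and a positive kill control (0) anchored the normalisation of each plate, and Z'-factor was used for quality control. Breast cancer cell lines in 20 µl suspension were incubated 72 h over compound in 5 µl medium in 384-well plates, followed by CellTiter-Blue at 560/590 nm. The value is normalised viability at a single listed concentration of the series.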"}, "MFM-223 [11]": {"test_system": "MFM-223", "assay": "normalised viability (% of control), CellTiter-Blue; higher = more viable cells (about 100 = DMSO control)", "procedure,_shortened": "as §2"}, "SK-BR-3": {"test_system": "SK-BR-3", "assay": "normalised viability (% of control), CellTiter-Blue; higher = more viable cells (about 100 = DMSO control)", "procedure,_shortened": "as §2"}, "CAL-120": {"test_system": "CAL-120", "assay": "normalised viability (% of control), CellTiter-Blue; higher = more viable cells (about 100 = DMSO control)", "procedure,_shortened": "as §2"}, "CAL-85-1 [12]": {"test_system": "CAL-85-1", "assay": "normalised viability (% of control), CellTiter-Blue; higher = more viable cells (about 100 = DMSO control)", "procedure,_shortened": "as §2"}, "CAL-148 [13]": {"test_system": "CAL-148", "assay": "normalised viability (% of control), CellTiter-Blue; higher = more viable cells (about 100 = DMSO control)", "procedure,_shortened": "as §2"}, "HCC1937": {"test_system": "HCC1937", "assay": "normalised viability (% of control), CellTiter-Blue; higher = more viable cells (about 100 = DMSO control)", "procedure,_shortened": "as §2"}, "HCC1599 [14]": {"test_system": "HCC1599", "assay": "normalised viability (% of control), CellTiter-Blue; higher = more viable cells (about 100 = DMSO control)", "procedure,_shortened": "as §2"}, "CAL-51 [15]": {"test_system": "CAL-51", "assay": "normalised viability (% of control), CellTiter-Blue; higher = more viable cells (about 100 = DMSO control)", "procedure,_shortened": "as §2"}, "MDA-MB-453 [16]": {"test_system": "MDA-MB-453", "assay": "normalised viability (% of control), CellTiter-Blue; higher = more viable cells (about 100 = DMSO control)", "procedure,_shortened": "as §2"}, "HCC1143 [17]": {"test_system": "HCC1143", "assay": "normalised viability (% of control), CellTiter-Blue; higher = more viable cells (about 100 = DMSO control)", "procedure,_shortened": "as §2"}, "HDQ-P1": {"test_system": "HDQ-P1", "assay": "normalised viability (% of control), CellTiter-Blue; higher = more viable cells (about 100 = DMSO control)", "procedure,_shortened": "as §2"}, "DU-4475 [18]": {"test_system": "DU-4475", "assay": "normalised viability (% of control), CellTiter-Blue; higher = more viable cells (about 100 = DMSO control)", "procedure,_shortened": "as §2"}, "Hs578T": {"test_system": "Hs578T", "assay": "normalised viability (% of control), CellTiter-Blue; higher = more viable cells (about 100 = DMSO control)", "procedure,_shortened": "as §2"}, "BT-474": {"test_system": "BT-474", "assay": "normalised viability (% of control), CellTiter-Blue; higher = more viable cells (about 100 = DMSO control)", "procedure,_shortened": "as §2"}}}
{"smiles": "CC(C)(C)c1cc(NC(=O)Nc2ccc(-c3cn4c(n3)sc3cc(OCCN5CCOCC5)ccc34)cc2)no1", "note": "[Quizartinib] (1000 nM)", "values": [{"measurement": "normalised response", "setting": "MDA-MB-436 [1]", "value": 71.8, "unit": "%"}, {"measurement": "normalised response", "setting": "MCF-10A", "value": 93.3, "unit": "%"}, {"measurement": "normalised response", "setting": "MFM-223 [2]", "value": 59.1, "unit": "%"}, {"measurement": "normalised response", "setting": "CAL-85-1 [3]", "value": 62.5, "unit": "%"}, {"measurement": "normalised response", "setting": "CAL-148 [4]", "value": 103, "unit": "%"}, {"measurement": "normalised response", "setting": "HCC1599 [5]", "value": 105, "unit": "%"}, {"measurement": "normalised response", "setting": "CAL-51 [6]", "value": 111, "unit": "%"}, {"measurement": "normalised response", "setting": "MDA-MB-453 [7]", "value": 112, "unit": "%"}, {"measurement": "normalised response", "setting": "HCC1143 [8]", "value": 132, "unit": "%"}, {"measurement": "normalised response", "setting": "DU-4475 [9]", "value": 102, "unit": "%"}]}
{"smiles": "COc1cccc2c1C(=O)c1c(O)c3c(c(O)c1C2=O)C[C@@](O)(C(C)=O)C[C@@H]3O[C@H]1C[C@H](N)[C@H](O)[C@H](C)O1", "note": "[Daunorubicin]", "values": [{"measurement": "normalised viability", "setting": "MDA-MB-436 [10]; 1 nM", "value": 100, "unit": "%"}, {"measurement": "normalised viability", "setting": "MDA-MB-436 [10]; 100 nM", "value": 50.4, "unit": "%"}, {"measurement": "normalised viability", "setting": "MDA-MB-436 [10]; 1000 nM", "value": 17.3, "unit": "%"}, {"measurement": "normalised viability", "setting": "MFM-223 [11]; 1 nM", "value": 108, "unit": "%"}, {"measurement": "normalised viability", "setting": "MFM-223 [11]; 100 nM", "value": 104, "unit": "%"}, {"measurement": "normalised viability", "setting": "MFM-223 [11]; 1000 nM", "value": 26.7, "unit": "%"}, {"measurement": "normalised viability", "setting": "SK-BR-3; 1 nM", "value": 103, "unit": "%"}, {"measurement": "normalised viability", "setting": "SK-BR-3; 100 nM", "value": 40.1, "unit": "%"}, {"measurement": "normalised viability", "setting": "SK-BR-3; 1000 nM", "value": 6.42, "unit": "%"}, {"measurement": "normalised viability", "setting": "CAL-120; 1 nM", "value": 80.3, "unit": "%"}, {"measurement": "normalised viability", "setting": "CAL-120; 100 nM", "value": 35.9, "unit": "%"}, {"measurement": "normalised viability", "setting": "CAL-120; 1000 nM", "value": 9.51, "unit": "%"}, {"measurement": "normalised viability", "setting": "CAL-85-1 [12]; 0.3 nM", "value": 87.3, "unit": "%"}, {"measurement": "normalised viability", "setting": "CAL-85-1 [12]; 3 nM", "value": 86.8, "unit": "%"}, {"measurement": "normalised viability", "setting": "CAL-85-1 [12]; 10 nM", "value": 89.1, "unit": "%"}, {"measurement": "normalised viability", "setting": "CAL-148 [13]; 0.3 nM", "value": 88.5, "unit": "%"}, {"measurement": "normalised viability", "setting": "CAL-148 [13]; 3 nM", "value": 106, "unit": "%"}, {"measurement": "normalised viability", "setting": "CAL-148 [13]; 10 nM", "value": 77.6, "unit": "%"}, {"measurement": "normalised viability", "setting": "HCC1937; 1 nM", "value": 105, "unit": "%"}, {"measurement": "normalised viability", "setting": "HCC1937; 100 nM", "value": 34.2, "unit": "%"}, {"measurement": "normalised viability", "setting": "HCC1937; 1000 nM", "value": 20, "unit": "%"}, {"measurement": "normalised viability", "setting": "HCC1599 [14]; 1 nM", "value": 82.5, "unit": "%"}, {"measurement": "normalised viability", "setting": "HCC1599 [14]; 100 nM", "value": 98.8, "unit": "%"}, {"measurement": "normalised viability", "setting": "HCC1599 [14]; 1000 nM", "value": 53.7, "unit": "%"}, {"measurement": "normalised viability", "setting": "CAL-51 [15]; 0.3 nM", "value": 97.1, "unit": "%"}, {"measurement": "normalised viability", "setting": "CAL-51 [15]; 3 nM", "value": 92.9, "unit": "%"}, {"measurement": "normalised viability", "setting": "CAL-51 [15]; 10 nM", "value": 88.2, "unit": "%"}, {"measurement": "normalised viability", "setting": "MDA-MB-453 [16]; 0.3 nM", "value": 110, "unit": "%"}, {"measurement": "normalised viability", "setting": "MDA-MB-453 [16]; 3 nM", "value": 114, "unit": "%"}, {"measurement": "normalised viability", "setting": "MDA-MB-453 [16]; 10 nM", "value": 97, "unit": "%"}, {"measurement": "normalised viability", "setting": "HCC1143 [17]; 1 nM", "value": 81.4, "unit": "%"}, {"measurement": "normalised viability", "setting": "HCC1143 [17]; 100 nM", "value": 52.7, "unit": "%"}, {"measurement": "normalised viability", "setting": "HCC1143 [17]; 1000 nM", "value": 32, "unit": "%"}, {"measurement": "normalised viability", "setting": "HDQ-P1; 0.3 nM", "value": 133, "unit": "%"}, {"measurement": "normalised viability", "setting": "HDQ-P1; 3 nM", "value": 94.5, "unit": "%"}, {"measurement": "normalised viability", "setting": "HDQ-P1; 10 nM", "value": 97.3, "unit": "%"}, {"measurement": "normalised viability", "setting": "DU-4475 [18]; 0.3 nM", "value": 84.7, "unit": "%"}, {"measurement": "normalised viability", "setting": "DU-4475 [18]; 3 nM", "value": 86.3, "unit": "%"}, {"measurement": "normalised viability", "setting": "DU-4475 [18]; 10 nM", "value": 70.7, "unit": "%"}, {"measurement": "normalised viability", "setting": "Hs578T; 1 nM", "value": 111, "unit": "%"}, {"measurement": "normalised viability", "setting": "Hs578T; 100 nM", "value": 64.1, "unit": "%"}, {"measurement": "normalised viability", "setting": "Hs578T; 1000 nM", "value": 6.42, "unit": "%"}, {"measurement": "normalised viability", "setting": "BT-474; 1 nM", "value": 118, "unit": "%"}, {"measurement": "normalised viability", "setting": "BT-474; 100 nM", "value": 80.3, "unit": "%"}, {"measurement": "normalised viability", "setting": "BT-474; 1000 nM", "value": 17.3, "unit": "%"}]}
